Reference: publication PMC11157491, “Novel Alaninamide Derivatives with Drug-like Potential for Development as Antiseizure and Antinociceptive Therapies—In Vitro and In Vivo Characterization” (ACS Chemical Neuroscience, 2024)
Where two headings read alike, the source gives them in different places.

Test: Pharmacokinetic study in serum and brain
Type: in vivo, mice
Conditions: for k el: read-out: λz (converted); for Vd/F: read-out: Vz/F
Method: Male CD-1 mice weighing 28–33 g housed in conditions of constant temperature with the 12:12 h light–dark cycle with free access to food and water were used in this study. The investigated compound was suspended in 1% Tween in sterile water for injection (Polpharma, Poland) and administered i.p. at two doses of 25 and 50 mg/kg. Additionally, the compound dissolved in a mixture of dimethylsulfoxide (DMSO), poly(ethylene glycol), and sterile water (1:2:7, v/v/v) was given orally (p.o.) at a dose of 25 mg/kg. The mice were sacrificed by decapitation under isoflurane anesthesia. Blood samples were collected at 5, 15, 30, 60, 120, 240, and 720 min after dosing (n = 3–4), and brains were harvested at the same time points. Blood was allowed to clot at room temperature for 20 min, and serum was separated by centrifugation at 3000 rpm for 10 min. The samples were stored at −80 °C until analysis. All animal procedures were approved by the First Ethics Committee on Animal Experimentation in Kraków (license no. 270/2019).
Before LC-MS/MS analysis, mouse brains were homogenized in distilled water at the ratio of 1:4 (w/v) using the ULTRA-TURRAX T10 basic tissue homogenizer (IKA, Germany). Brain homogenates or serum samples (50 μL) were deproteinized with 150 μL of 0.1% formic acid in acetonitrile with addition of the internal standard (valsartan), shaken for 10 min (IKA Vibrax VXR, Germany), and then centrifuged for 5 min at a speed of 8000g (Eppendorf miniSpin centrifuge, Germany). Supernatants were transferred into autosampler vials, and a sample volume of 1 μL was injected into the LC-MS/MS system. The autosampler temperature was maintained at 15 °C. Analytes were separated on a Hypersil Gold C18 analytical column (3 × 50 mm^2, 5 μm, Thermo Scientific) using an AB Sciex Exion LC AC HPLC system coupled with the triple quadrupole mass spectrometer (Sciex QTRAP 4500, both from the Danaher Corporation). The oven temperature was set at 30 °C. The initial mobile phase composition was 95% B (0.1% formic acid in water) and 5% A (0.1% formic acid in MeCN) for the first 2 min with a linear gradient to 5% B in the next 2 min and then isocratic mode for 2 min with the following rapid change back to 95% B in 0.1 min. The remaining time of elution was set at 95% B. The whole HPLC operation lasted 10 min, and the flow rate was set at 0.4 mL/min. Electrospray ionization (ESI) in the positive ion mode was used for ion production. […] The mass spectrometric conditions were optimized by continuous infusion of the standard solution at a rate of 7 μL/min using a Harvard infusion pump. The ion source temperature was maintained at 450 °C, and the ion spray voltage was set at 5500 V. The curtain gas (CUR) was set at 40 psi and the collision gas (CAD) at Medium. The calibration curves were constructed by plotting the ratio of the peak area of the studied compound to the internal standard (IS) versus drug concentration and generated by weighted (1/x × x) linear regression analysis. […] Working standard solutions were prepared in methanol by the serial dilution of the stock solution at the following concentrations: 0.01, 0.1, 0.25, 0.5, 1, 2.5, 5, 10, 20, 50, 100, and 200 μg/mL. To prepare samples for the calibration curve, 45 μL of the matrix (plasma or brain homogenate) was spiked with 5 μL of the standard working solution at an appropriate concentration level and vortexed for 10 s. For each matrix, there were two calibration curves constructed separately for lower and higher concentrations. Calibrators (as well as samples) from the upper concentration range were additionally 10 times diluted with the precipitating agent. The validated quantitation ranges for this method were from 0.001 to 5 μg/mL and from 0.1 to 20 μg/mL of serum, and from 0.005 to 25 μg/g and from 0.5 to 100 μg/g of the brain. Samples with the concentration of 28 above the upper limit of quantification were diluted 10 times with the blank matrix (serum or brain homogenate). […]

[1] = male, CD-1, mouse, ip, brain, i.p. 25 mg/kg, mice
[2] = male, CD-1, mouse, ip, brain, i.p. 50 mg/kg, mice
[3] = male, CD-1, mouse, ip, serum, i.p. 25 mg/kg, mice
[4] = male, CD-1, mouse, ip, serum, i.p. 50 mg/kg, mice
[5] = male, CD-1, mouse, po, brain, p.o. 25 mg/kg, mice
[6] = male, CD-1, mouse, po, serum, p.o. 25 mg/kg, mice

CC(=O)NC(C)C(=O)N1CCN(c2cccc(OC(F)(F)F)c2)CC1 (stereo not shown) [Compound 28, N-(1-oxo-1-(4-(3-(Trifluoromethoxy)phenyl)piperazin-1-yl)propan-2-yl)acetamide]
brain concentration (after 25 mg/kg dose administration): > 10 µM | AUC0–t (brain, i.p. 25 mg/kg, mice): 347,914.8 ng·min/mL (g) | AUC0–∞ (brain, i.p. 25 mg/kg, mice): 348,212.5 ng·min/mL (g) | Cmax (brain, i.p. 25 mg/kg, mice): 13,683.3 ng/mL (g) | t0.5λz (brain, i.p. 25 mg/kg, mice): 111.39 min | AUC0–t (brain, i.p. 50 mg/kg, mice): 1,284,194.3 ng·min/mL (g) | AUC0–∞ (brain, i.p. 50 mg/kg, mice): 1,285,007.9 ng·min/mL (g) | Cmax (brain, i.p. 50 mg/kg, mice): 39,800.0 ng/mL (g) | t0.5λz (brain, i.p. 50 mg/kg, mice): 106.52 min | AUC0–t (brain, p.o. 25 mg/kg, mice): 333,360.7 ng·min/mL (g) | AUC0–∞ (brain, p.o. 25 mg/kg, mice): 334,667.7 ng·min/mL (g) | Cmax (brain, p.o. 25 mg/kg, mice): 3799.4 ng/mL (g) | t0.5λz (brain, p.o. 25 mg/kg, mice): 97.20 min | Kp (male, CD-1, mouse, brain/serum, intraperitoneal, oral, both doses and routes of administration, read-out: brain-to-serum Cmax and AUC ratio): > 1 | Tmax (male, CD-1, mouse, intraperitoneal, oral, all cases (serum and brain, both doses and routes), read-out: time to reach the maximum concentration (tmax) (converted)): 5 min | half-life (male, CD-1, mouse, intraperitoneal, oral, serum and brain, both doses and routes (i.p. and p.o.), read-out: elimination half-lives (t1/2)): 58.6 to 111 min | MRT [1]: 23.6 min | Tmax (male, CD-1, mouse, ip, brain, i.p. 25 mg/kg, mice, read-out: tmax (converted)): 5 min | k el [1]: 0.0001 s⁻¹ | MRT [2]: 26.4 min | Tmax (male, CD-1, mouse, ip, brain, i.p. 50 mg/kg, mice, read-out: tmax (converted)): 5 min | k el [2]: 0.000117 s⁻¹ | CL/F [3]: 98 mL/min/kg | MRT [3]: 22 min | Vd/F [3]: 13.4 L/kg | Tmax (male, CD-1, mouse, ip, serum, i.p. 25 mg/kg, mice, read-out: tmax (converted)): 5 min | k el [3]: 0.000117 s⁻¹ | CL/F [4]: 48 mL/min/kg | MRT [4]: 24.4 min | Vd/F [4]: 5.89 L/kg | Tmax (male, CD-1, mouse, ip, serum, i.p. 50 mg/kg, mice, read-out: tmax (converted)): 5 min | k el [4]: 0.000133 s⁻¹ | MRT [5]: 110 min | Tmax (male, CD-1, mouse, po, brain, p.o. 25 mg/kg, mice, read-out: tmax (converted)): 5 min | k el [5]: 0.000117 s⁻¹ | CL/F [6]: 84 mL/min/kg | MRT [6]: 101 min | Vd/F [6]: 7.1 L/kg | Tmax (male, CD-1, mouse, po, serum, p.o. 25 mg/kg, mice, read-out: tmax (converted)): 5 min | k el [6]: 0.0002 s⁻¹ | AUC0–t (serum, i.p. 25 mg/kg, mice): 254,384.6 ng·min/mL (g) | AUC0–∞ (serum, i.p. 25 mg/kg, mice): 254,465.4 ng·min/mL (g) | Cmax (serum, i.p. 25 mg/kg, mice): 11,033.3 ng/mL (g) | t0.5λz (serum, i.p. 25 mg/kg, mice): 94.29 min | AUC0–t (serum, i.p. 50 mg/kg, mice): 1,045,787.2 ng·min/mL (g) | AUC0–∞ (serum, i.p. 50 mg/kg, mice): 1,045,940.8 ng·min/mL (g) | Cmax (serum, i.p. 50 mg/kg, mice): 37,566.7 ng/mL (g) | t0.5λz (serum, i.p. 50 mg/kg, mice): 85.42 min | AUC0–t (serum, p.o. 25 mg/kg, mice): 297,899.7 ng·min/mL (g) | AUC0–∞ (serum, p.o. 25 mg/kg, mice): 298,019.5 ng·min/mL (g) | Cmax (serum, p.o. 25 mg/kg, mice): 3740.0 ng/mL (g) | t0.5λz (serum, p.o. 25 mg/kg, mice): 58.62 min
